Measurements published in ChEMBL document CHEMBL3885881, “DrugMatrix”.

Organism: Rattus norvegicus
Test: DrugMatrix - Regimen: Daily Repeat
Format: toxicity, organism-based, Sprague-Dawley
Design: regimen Daily Repeat, gender Male, age 6-8 weeks
Settings: in vivo, po, route oral GAVAGE, […]; for ABSOLUTE BASOPHIL / ABSOLUTE EOSINOPHIL / ABSOLUTE LYMPHOCYTE / ABSOLUTE MONOCYTE / ABSOLUTE SEGMENTED NEUTROPHIL / BASOPHIL / EOSINOPHIL / ERYTHROCYTE COUNT / HEMATOCRIT / HEMOGLOBIN / LEUKOCYTE COUNT / LYMPHOCYTE / MEAN CORPUSCULAR HEMOGLOBIN / MEAN CORPUSCULAR HEMOGLOBIN CONCENTRATION / MEAN CORPUSCULAR VOLUME / MONOCYTE / NEUTROPHIL / NUCLEATED RED BLOOD CELLS / PLATELET COUNT: tissue Blood; for ALANINE AMINOTRANSFERASE / ALKALINE PHOSPHATASE / ASPARTATE AMINOTRANSFERASE / BLOOD UREA NITROGEN / CARBON DIOXIDE / CHLORIDE / CHOLESTEROL / CREATINE PHOSPHOKINASE / CREATININE / GLUCOSE / LACTATE DEHYDROGENASE / LIPASE / PHOSPHORUS / POTASSIUM / SODIUM / TOTAL BILIRUBIN / TOTAL PROTEIN / URIC ACID: tissue Plasma
[1] = 0 mg/kg, 72 h, dose level Control, time 3 day
[2] = 0 mg/kg, 120 h, dose level Control, time 5 day
[3] = 36 mg/kg, 72 h, dose level Low, time 3 day

c1ccc2c(c1)Nc1ccccc1S2 [PHENOTHIAZINE]
ABSOLUTE BASOPHIL [1]: 0 CELLS/uL
ABSOLUTE EOSINOPHIL [1]: 0 CELLS/uL
ABSOLUTE LYMPHOCYTE [1]: 6275.67 CELLS/uL
ABSOLUTE MONOCYTE [1]: 40.67 CELLS/uL
ABSOLUTE SEGMENTED NEUTROPHIL [1]: 633.67 CELLS/uL
BASOPHIL [1]: 0%
EOSINOPHIL [1]: 0%
ERYTHROCYTE COUNT [1]: 5.2 x10E6/uL
HEMATOCRIT [1]: 32.78%
HEMOGLOBIN [1]: 12.98 G/DL
LEUKOCYTE COUNT [1]: 6.95 x10E3/uL
LYMPHOCYTE [1]: 90.17%
MEAN CORPUSCULAR HEMOGLOBIN [1]: 24.97 pg
MEAN CORPUSCULAR HEMOGLOBIN CONCENTRATION [1]: 39.62 G/DL
MEAN CORPUSCULAR VOLUME [1]: 63.03 fL
MONOCYTE [1]: 0.67%
NEUTROPHIL [1]: 9.17%
NUCLEATED RED BLOOD CELLS [1]: 0 /100WBC
PLATELET COUNT [1]: 1082.83 x10E3/uL
ALANINE AMINOTRANSFERASE [1]: 69.67 u/L
ALKALINE PHOSPHATASE [1]: 430.5 u/L
ASPARTATE AMINOTRANSFERASE [1]: 90.83 u/L
BLOOD UREA NITROGEN [1]: 13 mg/dL
CARBON DIOXIDE [1]: 33 mmol/L
CHLORIDE [1]: 99.17 MEQ/L
CHOLESTEROL [1]: 70.5 mg/dL
CREATINE PHOSPHOKINASE [1]: 253.33 u/L
CREATININE [1]: 0.13 mg/dL
GLUCOSE [1]: 157.17 mg/dL
LACTATE DEHYDROGENASE [1]: 85 u/L
LIPASE [1]: 10 u/L
PHOSPHORUS [1]: 10.2 mg/dL
POTASSIUM [1]: 5.78 MEQ/L
SODIUM [1]: 144.12 MEQ/L
TOTAL BILIRUBIN [1]: 0.2 mg/dL
TOTAL PROTEIN [1]: 5.8 G/DL
URIC ACID [1]: 0.8 mg/dL
ABSOLUTE BASOPHIL [2]: 0 CELLS/uL
ABSOLUTE EOSINOPHIL [2]: 0 CELLS/uL
ABSOLUTE LYMPHOCYTE [2]: 10431 CELLS/uL
ABSOLUTE MONOCYTE [2]: 90.5 CELLS/uL
ABSOLUTE SEGMENTED NEUTROPHIL [2]: 1111.83 CELLS/uL
BASOPHIL [2]: 0%
EOSINOPHIL [2]: 0%
ERYTHROCYTE COUNT [2]: 5.51 x10E6/uL
HEMATOCRIT [2]: 34.67%
HEMOGLOBIN [2]: 13.5 G/DL
LEUKOCYTE COUNT [2]: 11.63 x10E3/uL
LYMPHOCYTE [2]: 89.67%
MEAN CORPUSCULAR HEMOGLOBIN [2]: 24.5 pg
MEAN CORPUSCULAR HEMOGLOBIN CONCENTRATION [2]: 38.95 G/DL
MEAN CORPUSCULAR VOLUME [2]: 62.87 fL
MONOCYTE [2]: 0.67%
NEUTROPHIL [2]: 9.67%
NUCLEATED RED BLOOD CELLS [2]: 0 /100WBC
PLATELET COUNT [2]: 1052.67 x10E3/uL
ALANINE AMINOTRANSFERASE [2]: 54.67 u/L
ALKALINE PHOSPHATASE [2]: 359.83 u/L
ASPARTATE AMINOTRANSFERASE [2]: 83 u/L
BLOOD UREA NITROGEN [2]: 13.5 mg/dL
CARBON DIOXIDE [2]: 27.17 mmol/L
CHLORIDE [2]: 98.5 MEQ/L
CHOLESTEROL [2]: 66.83 mg/dL
CREATINE PHOSPHOKINASE [2]: 256.17 u/L
CREATININE [2]: 0.19 mg/dL
GLUCOSE [2]: 171.33 mg/dL
LACTATE DEHYDROGENASE [2]: 91.5 u/L
LIPASE [2]: 10.5 u/L
PHOSPHORUS [2]: 8.72 mg/dL
POTASSIUM [2]: 5.34 MEQ/L
SODIUM [2]: 142.53 MEQ/L
TOTAL BILIRUBIN [2]: 0.2 mg/dL
TOTAL PROTEIN [2]: 6.05 G/DL
URIC ACID [2]: 0.6 mg/dL
ABSOLUTE BASOPHIL [3]: 0 CELLS/uL
ABSOLUTE EOSINOPHIL [3]: 54.67 CELLS/uL
ABSOLUTE LYMPHOCYTE [3]: 10865.33 CELLS/uL
ABSOLUTE MONOCYTE [3]: 53.67 CELLS/uL
ABSOLUTE SEGMENTED NEUTROPHIL [3]: 926.33 CELLS/uL
BASOPHIL [3]: 0%
EOSINOPHIL [3]: 0.67%
ERYTHROCYTE COUNT [3]: 5.23 x10E6/uL
HEMATOCRIT [3]: 34.4%
HEMOGLOBIN [3]: 13.4 G/DL
LEUKOCYTE COUNT [3]: 11.9 x10E3/uL
LYMPHOCYTE [3]: 91%
MEAN CORPUSCULAR HEMOGLOBIN [3]: 25.6 pg
MEAN CORPUSCULAR HEMOGLOBIN CONCENTRATION [3]: 39 G/DL
MEAN CORPUSCULAR VOLUME [3]: 65.73 fL
MONOCYTE [3]: 0.33%
NEUTROPHIL [3]: 8%
NUCLEATED RED BLOOD CELLS [3]: 0 /100WBC
PLATELET COUNT [3]: 973 x10E3/uL
ALANINE AMINOTRANSFERASE [3]: 62.67 u/L
ALKALINE PHOSPHATASE [3]: 333.33 u/L
ASPARTATE AMINOTRANSFERASE [3]: 94.33 u/L
BLOOD UREA NITROGEN [3]: 11.67 mg/dL
CARBON DIOXIDE [3]: 26.67 mmol/L
CHLORIDE [3]: 98 MEQ/L
CHOLESTEROL [3]: 63.67 mg/dL
CREATINE PHOSPHOKINASE [3]: 272.33 u/L
CREATININE [3]: 0.28 mg/dL
GLUCOSE [3]: 138 mg/dL
LACTATE DEHYDROGENASE [3]: 84 u/L
LIPASE [3]: 10.33 u/L
PHOSPHORUS [3]: 10.03 mg/dL
POTASSIUM [3]: 5.46 MEQ/L
SODIUM [3]: 142.1 MEQ/L
TOTAL BILIRUBIN [3]: 0.17 mg/dL
TOTAL PROTEIN [3]: 5.37 G/DL
URIC ACID [3]: 0.57 mg/dL
